Experimental findings from ChEMBL document CHEMBL1137250, “Novel 6-O-acylated vitamin C derivatives as hyaluronidase inhibitors with selectivity for bacterial lyases” (Bioorg Med Chem Lett, 2006) are described below.

The source made the active and inactive calls. The rule behind the calls is not given here.

Experiment [1] is filed under the species Bos taurus. Kind of experiment: Inhibition of bovine hyaluronidase up to 100 mM at pH 5.0.
Experiment [2] is described as follows: Inhibition of Streptococcus agalactiae 4755 hyaluronidase at pH 5.0.
A short description of experiment [3]: Inhibition of Streptococcus pneumoniae hyaluronidase.
A short description of experiment [4]: (§1) Inhibition of bovine hyaluronidase at pH 5.0. On the set-up: species or system Bos taurus.
The species entered for experiment [5] is Bos taurus. In words: Inhibition of bovine hyaluronidase up to 200 uM at pH 5.0.
Experiment [6] deals with Streptococcus agalactiae. In words: Inhibition of Streptococcus agalactiae 4755 hyaluronidase at 190 uM at pH 5.0.
Experiment [7] has as its system Streptococcus agalactiae. Kind of experiment: Inhibition of Streptococcus agalactiae 4755 hyaluronidase at 1100 uM at pH 5.0.
The species entered for experiment [8] is Bos taurus. Kind of experiment: Inhibition of bovine hyaluronidase up to 1.1 mM at pH 5.0.
Experiment [9] is filed under the species Bos taurus. Described as §1.
For experiment [10], the system named is Streptococcus agalactiae. Kind of experiment: Inhibition of Streptococcus agalactiae 4755 hyaluronidase upto 13 mM at pH 5.0.
The species entered for experiment [11] is Bos taurus. In words: Inhibition of bovine hyaluronidase up to 13 mM at pH 5.0.
The test system of experiment [12] is Streptococcus agalactiae. Kind of experiment: Inhibition of Streptococcus agalactiae 4755 hyaluronidase at 2000 uM at pH 5.0.
For experiment [13], the system named is Streptococcus agalactiae. In words: Inhibition of Streptococcus agalactiae 4755 hyaluronidase at 160 uM at pH 5.0.
The species entered for experiment [14] is Bos taurus. Kind of experiment: Inhibition of bovine hyaluronidase at 1430 uM.
Experiment [15] relates to Streptococcus agalactiae. Kind of experiment: Inhibition of Streptococcus agalactiae 4755 hyaluronidase upto 200 uM at pH 5.0.

As a reminder, the IC50 is the point on the concentration scale where inhibition reaches its midpoint. A high value points to weaker potency. For `O=C1O[C@H]([C@@H](O)CO)C(O)=C1O` [ASCORBIC ACID], the result in the experiment listed under Bos taurus [1] was inactive. The IC50 in [2] came out at 6100 µM; in [3], 5.8 mM.

For `O=C(CCCCCOCc1ccc(-c2ccccc2)cc1)OC[C@H](O)[C@H]1OC(=O)C(O)=C1O`, the figures for the IC50 in experiment [4] and in experiment [2] were 543 µM and 102 µM, respectively.

As usually defined, the inhibition is the relative decrease from the control value, in per cent. Read a low inhibition as little suppression. In the case of `CCCCCCCCCCCCCCCC(=O)OC[C@H](O)[C@H]1OC(=O)C2=C1OCCO2`, the outcome in the experiment filed under Bos taurus [5] was inactive. Besides, the inhibition with Streptococcus agalactiae [6] amounted to 32%.

`CC(C)(C)C(=O)OC[C@H](O)[C@H]1OC(=O)C(O)=C1O` displayed an inhibition in the experiment on Streptococcus agalactiae [7] of 43%. Besides, in the experiment filed under Bos taurus [8], the result was inactive.

With `O=C(CCCCCCCCCCOc1ccc(-c2ccccc2)cc1)OC[C@H](O)[C@H]1OC(=O)C(O)=C1O`, the IC50 amounted to 37 µM in experiment [4] and 7.5 µM in experiment [2].

Turning to `CCCCCCCC(=O)OC[C@H](O)[C@H]1OC(=O)C(O)=C1O`, in the experiment listed under Bos taurus [9], the outcome was inactive. Further, it took 772 µM to reach half-maximal inhibition in experiment [2] (IC50).

`COC1=C(OC)[C@@H]([C@@H](O)CO)OC1=O`: the result in the experiment on Streptococcus agalactiae [10] and in the experiment filed under Bos taurus [11] was inactive.

Take `O=C1O[C@H]([C@@H](O)CO)C2=C1OCCO2`: in the experiment filed under Bos taurus [11], the result was inactive. Moreover, the inhibition in the experiment on Streptococcus agalactiae [12] came to 24%.

With `CCCCCCCCCCCCCCCCCC(=O)OC[C@H](O)[C@H]1OC(=O)C(O)=C1O` [ASCORBYL STEARATE], the IC50 in experiment [4] is 39 µM; in experiment [2], 0.9 µM.

Regarding `CCCCCCCCCCCCCC(=O)OC[C@H](O)[C@H]1OC(=O)C(O)=C1O`, the IC50 was found to be 71 µM in experiment [4] and 8.4 µM in experiment [2].

On to `CCCCCCCCCCCCC(=O)OC[C@H](O)[C@H]1OC(=O)C(O)=C1O`, for which the figures for the 50% inhibitory concentration (IC50) in experiment [4] and in experiment [2] were 96 µM and 14.3 µM, respectively.

On to `CCCCCCCCCCCCCCCC(=O)OC[C@H](O)[C@H]1OC(=O)C(OC)=C1OC`, for which the result in the experiment listed under Bos taurus [5] was inactive. This molecule also showed an inhibition in the experiment with Streptococcus agalactiae [13] of 5%.

`CCCCCCCCCCCC(=O)OC[C@H](O)[C@H]1OC(=O)C(O)=C1O`: the IC50 in experiment [4] was found to be 208 µM; in experiment [2], 47 µM.

Turning to `O=C(CCCCCOc1ccccc1)OC[C@H](O)[C@H]1OC(=O)C(O)=C1O`, the result in the experiment listed under Bos taurus [9] was inactive. For the same molecule, in experiment [2], the IC50 is 717 µM.

Consider `CCCCCCCCCCC(=O)OC[C@H](O)[C@H]1OC(=O)C(O)=C1O`, for which the IC50 worked out at 580 µM in experiment [4] and 72 µM in experiment [2].

As for `O=C(CCCCCOc1ccc(-c2ccccc2)cc1)OC[C@H](O)[C@H]1OC(=O)C(O)=C1O`, the IC50 in [4] is 188 µM; in [2], 61 µM.

`O=C(CCCCCOCc1ccccc1)OC[C@H](O)[C@H]1OC(=O)C(O)=C1O`: the outcome in the experiment filed under Bos taurus [9] was inactive. Further, the IC50 in experiment [2] stood at 437 µM.

Consider `O=C(CCCCCCCCCCOc1ccccc1)OC[C@H](O)[C@H]1OC(=O)C(O)=C1O`, for which the figures for the IC50 in [4] and in experiment [2] were 105 µM and 31 µM, respectively.

`CCCCCCCCCCCCCCCC(=O)OC[C@H](O)[C@H]1OC(=O)C(O)=C1O` [ASCORBYL PALMITATE]: the IC50 in experiment [4] worked out at 57 µM; in experiment [2] it was 4.2 µM.

With `O=C(Cc1ccc(-c2ccccc2)cc1)OC[C@H](O)[C@H]1OC(=O)C(O)=C1O`, the IC50 in experiment [4] was 2010 µM; in [2] it was 358 µM.

Turning to `O=C1O[C@H]([C@@H](O)CO)C(OCc2ccccc2)=C1OCc1ccccc1`, the outcome in the experiment listed under Bos taurus [11] was inactive. Further, half-maximal inhibition in experiment [2] (IC50) required 355 µM.

In the case of `CCCCCCCCCC(=O)OC[C@H](O)[C@H]1OC(=O)C(O)=C1O`, the IC50 in experiment [4] is 1380 µM; in experiment [2] it was 102 µM.

For `O=C1O[C@H]([C@@H](O)COC(=O)c2ccccc2)C(O)=C1O`, in the experiment filed under Bos taurus [14], the inhibition was 33%. Half-maximal inhibition in [2] (IC50) required 132 µM.

Take `CCc1ccc(OCCCCCC(=O)OC[C@H](O)[C@H]2OC(=O)C(O)=C2O)cc1`: the outcome in the experiment listed under Bos taurus [9] was inactive. This molecule yielded an IC50 in [2] of 280 µM.

Turning to `O=C(CCCCCOc1ccc(OCc2ccccc2)cc1)OC[C@H](O)[C@H]1OC(=O)C(O)=C1O`, the IC50 in [4] amounted to 210 µM; in experiment [2] it was 76 µM.

`CCCCCC(=O)OC[C@H](O)[C@H]1OC(=O)C(O)=C1O`: in the experiment filed under Bos taurus [9], the outcome was inactive. The same molecule gave an IC50 in experiment [2] of 475 µM.

For `CCCCCCCCCCCCCCCC(=O)OC[C@H](O)[C@H]1OC(=O)C(OCc2ccccc2)=C1OCc1ccccc1`, the outcome in the experiment filed under Bos taurus [5] and with Streptococcus agalactiae [15] was inactive.
